Where a name gives a salt, the structure may show the parent alone.
Tested on: XBP1s-luc 293 LUC
Assay: cellular PD assay, XBP1s-LUC reporter (Example 903)
Type: cell-based
Details: Table 2; read-out: XBP1s-luc 293 LUC (IC50)
Outline: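 Cellular IRE1α pathway activity was quantified from the luciferase signal of an XBP1-Luc reporter, where the luciferase fusion is in frame and expressed only from the spliced XBP1 transcript.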

SMILES	IC50 [nM]
Cc1ccc2c(NS(=O)(=O)Cc3noc4ccccc34)c(F)ccc2c1Oc1ncccc1-c1ccnc(N[C@H]2CCCNC2)n1 [Example 443, (S)-1-(Benzo[d]isoxazol-3-yl)-N-(2-fluoro-6-methyl-5-((3-(2-(piperidin-3-ylamino)pyrimidin-4-yl)pyridin-2-yl)oxy)naphthalen-1-yl)methanesulfonamide hydrochloride]	8
CCO[C@@H](CNc1cccc2c(Oc3ncccc3-c3ccnc(N[C@H]4CCCNC4)n3)c(C)ccc12)C(F)(F)F [Example 445, 4-(2-((5-(((S)-2-Ethoxy-3,3,3-trifluoropropyl)amino)-2-methylnaphthalen-1-yl)oxy)pyridin-3-yl)-N—((S)-piperidin-3-yl)pyrimidin-2-amine hydrochloride]	78
Cc1ccc2c(NS(=O)(=O)Cc3nn(C)cc3Cl)c(F)ccc2c1Oc1ncccc1-c1ccnc(N[C@H]2CCCNC2)n1 [Example 448, 1-(4-Chloro-1-methyl-pyrazol-3-yl)-N-[2-fluoro-6-methyl-5-[[3-[2-[[(3S)-3-piperidyl]amino]pyrimidin-4-yl]-2-pyridyl]oxy]-1-naphthyl]methanesulfonamide hydrochloride]	19
Cc1ccc2c(NS(=O)(=O)Cc3ccn(C)n3)c(F)ccc2c1Oc1ncccc1-c1ccnc(N[C@H]2CCCNC2)n1 [Example 449, N-[2-Fluoro-6-methyl-5-[[3-[2-[[(3S)-3-piperidyl]amino]pyrimidin-4-yl]-2-pyridyl]oxy]-1-naphthyl]-1-(1-methylpyrazol-3-yl)methanesulfonamide hydrochloride]	25
COCCCS(=O)(=O)Nc1c(F)ccc2c(Oc3ncccc3-c3ccnc(N[C@H]4CCCNC4)n3)c(C)ccc12 [Example 450, (S)—N-(2-Fluoro-6-methyl-5-((3-(2-(piperidin-3-ylamino)pyrimidin-4-yl)pyridin-2-yl)oxy)naphthalen-1-yl)-3-methoxypropane-1-sulfonamide hydrochloride]	104
O=S(=O)(CCC(F)(F)F)Nc1cccc2c(Oc3ncccc3-c3ccnc(N[C@H]4CCCNC4)n3)cccc12 [Example 451]	345
O=S(=O)(Cc1ccccc1)Nc1cccc2c(Oc3ncccc3-c3ccnc(N[C@H]4CCCNC4)n3)cccc12 [Example 452, (S)-1-Phenyl-N-(5-((3-(2-(piperidin-3-ylamino)pyrimidin-4-yl)pyridin-2-yl)oxy)naphthalen-1-yl)methanesulfonamide]	19
Cc1ccc2c(NS(=O)(=O)CC3(F)CC3)c(F)ccc2c1Oc1ncccc1-c1ccnc(N[C@H]2CCCNC2)n1 [Example 453, (S)—N-(2-Fluoro-6-methyl-5-((3-(2-(piperidin-3-ylamino)pyrimidin-4-yl)pyridin-2-yl)oxy)naphthalen-1-yl)-1-(1-fluorocyclopropyl)methanesulfonamide hydrochloride]	18
CCC(F)(F)CS(=O)(=O)Nc1c(F)ccc2c(Oc3ncccc3-c3ccnc(N[C@H]4CCCNC4)n3)c(C)ccc12 [Example 456, (S)-2,2-Difluoro-N-(2-fluoro-6-methyl-5-((3-(2-(piperidin-3-ylamino)pyrimidin-4-yl)pyridin-2-yl)oxy)naphthalen-1-yl)butane-1-sulfonamide hydrochloride]	11
CC/C(F)=C/S(=O)(=O)Nc1c(F)ccc2c(Oc3ncccc3-c3ccnc(N[C@H]4CCCNC4)n3)c(C)ccc12 [Example 457, (S,Z)-2-Fluoro-N-(2-fluoro-6-methyl-5-((3-(2-(piperidin-3-ylamino)pyrimidin-4-yl)pyridin-2-yl)oxy)naphthalen-1-yl)but-1-ene-1-sulfonamide hydrochloride]	105
Cc1ccc2c(NS(=O)(=O)c3cccc4c3ccn4C)c(F)ccc2c1Oc1ncccc1-c1ccnc(N[C@H]2CCCNC2)n1 [Example 458, N-[2-Fluoro-6-methyl-5-[[3-[2-[[(3S)-3-piperidyl]amino]pyrimidin-4-yl]-2-pyridyl]oxy]-1-naphthyl]-1-methyl-indole-4-sulfonamide]	19
Cc1ccc2c(NCC(=O)C3CC3)cccc2c1Oc1ncccc1-c1ccnc(N[C@H]2CCCNC2)n1 [Example 459, (S)-1-Cyclopropyl-2-((6-methyl-5-((3-(2-(piperidin-3-ylamino)pyrimidin-4-yl)pyridin-2-yl)oxy)naphthalen-1-yl)amino)ethanone hydrochloride]	312
Cc1ccc2c(NC(=O)C3CC34CC4)c(F)ccc2c1Oc1ncccc1-c1ccnc(N[C@H]2CCCNC2)n1 (stereo partly drawn) [Example 465, N-(2-Fluoro-6-methyl-5-((3-(2-(((S)-piperidin-3-yl)amino)pyrimidin-4-yl)pyridin-2-yl)oxy)naphthalen-1-yl)spiro[2.2]pentane-1-carboxamide]	57
Cc1ccc2c(NS(=O)(=O)CCC(F)F)c(F)ccc2c1Oc1ncccc1-c1ccnc(N[C@@H]2CNC[C@H](C)C2)n1 [Example 472, 3,3-Difluoro-N-(2-fluoro-6-methyl-5-((3-(2-(((3S,5R)-5-methylpiperidin-3-yl)amino)pyrimidin-4-yl)pyridin-2-yl)oxy)naphthalen-1-yl)propane-1-sulfonamide]	8
Cc1ccc2c(NS(=O)(=O)Cc3ccccc3F)c(F)ccc2c1Oc1ncccc1-c1ccnc(N[C@@H]2CNC[C@H](C)C2)n1 [Example 477, N-(2-Fluoro-6-methyl-5-((3-(2-(((3S,5R)-5-methylpiperidin-3-yl)amino)pyrimidin-4-yl)pyridin-2-yl)oxy)naphthalen-1-yl)-1-(2-fluorophenyl)methanesulfonamide]	7
Cc1cc(NS(=O)(=O)CCC(F)(F)F)c2ccccc2c1Oc1ncccc1-c1ccnc(N[C@H]2CCCNC2)n1 [Example 478, (S)-3,3,3-Trifluoro-N-(3-methyl-4-((3-(2-(piperidin-3-ylamino)pyrimidin-4-yl)pyridin-2-yl)oxy)naphthalen-1-yl)propane-1-sulfonamide]	118
Cc1ccc2c(NS(=O)(=O)Cc3ccccc3)cccc2c1Oc1ncccc1-c1ccnc(N[C@@H]2CNC[C@H](C)C2)n1 [Example 479, N-[6-Methyl-5-[[3-[2-[[(3S,5R)-5-methyl-3-piperidyl]amino]pyrimidin-4-yl]-2-pyridyl]oxy]-1-naphthyl]-1-phenyl-methanesulfonamide]	12
Cc1c(F)c(NS(=O)(=O)Cc2ccccc2)c2ccccc2c1Oc1ncccc1-c1ccnc(N[C@H]2CCCNC2)n1 [Example 480, (S)—N-(2-Fluoro-3-methyl-4-((3-(2-(piperidin-3-ylamino)pyrimidin-4-yl)pyridin-2-yl)oxy)naphthalen-1-yl)-1-phenylmethanesulfonamide]	7
Cc1ccc2c(NS(=O)(=O)CCC(F)(F)F)cccc2c1Oc1ncccc1-c1ccnc(N[C@@H]2CNC[C@H](C)C2)n1 [Example 481, 3,3,3-Trifluoro-N-(6-methyl-5-((3-(2-(((3S,5R)-5-methylpiperidin-3-yl)amino)pyrimidin-4-yl)pyridin-2-yl)oxy)naphthalen-1-yl)propane-1-sulfonamide]	70
Cc1c(F)c(NS(=O)(=O)CCC(F)(F)F)c2ccccc2c1Oc1ncccc1-c1ccnc(N[C@H]2CCCNC2)n1 [Example 482, (S)-3,3,3-Trifluoro-N-(2-fluoro-3-methyl-4-((3-(2-(piperidin-3-ylamino)pyrimidin-4-yl)pyridin-2-yl)oxy)naphthalen-1-yl)propane-1-sulfonamide]	65

Reference: patent publication US10968203B2, “Pyrimidinyl-pyridyloxy-naphthyl compounds and methods of treating IRE1-related diseases and disorders” (Genentech, Inc., priority 2017, dated 2021)
